Consider 31 compounds from US20230086703A1, “N-(4-(5-chloropyridin-3-yl)phenyl)-2-(2-(cyclopropanesulfonamido)pyrimidin-4-yl) butanamide derivatives and related compounds as human CTPS1 inhibitors for the treatment of proliferative diseases” (Step Pharma S.A.S., priority 2019, published 2023).

The target of this experiment is T1, human CTPS1 (Homo sapiens, UniProt P17812).
T1 construct: FLAG (with GG linker); His8 (with GG linker); purchased Proteros biostructures GmbH
T1 sequence (P17812 1-591): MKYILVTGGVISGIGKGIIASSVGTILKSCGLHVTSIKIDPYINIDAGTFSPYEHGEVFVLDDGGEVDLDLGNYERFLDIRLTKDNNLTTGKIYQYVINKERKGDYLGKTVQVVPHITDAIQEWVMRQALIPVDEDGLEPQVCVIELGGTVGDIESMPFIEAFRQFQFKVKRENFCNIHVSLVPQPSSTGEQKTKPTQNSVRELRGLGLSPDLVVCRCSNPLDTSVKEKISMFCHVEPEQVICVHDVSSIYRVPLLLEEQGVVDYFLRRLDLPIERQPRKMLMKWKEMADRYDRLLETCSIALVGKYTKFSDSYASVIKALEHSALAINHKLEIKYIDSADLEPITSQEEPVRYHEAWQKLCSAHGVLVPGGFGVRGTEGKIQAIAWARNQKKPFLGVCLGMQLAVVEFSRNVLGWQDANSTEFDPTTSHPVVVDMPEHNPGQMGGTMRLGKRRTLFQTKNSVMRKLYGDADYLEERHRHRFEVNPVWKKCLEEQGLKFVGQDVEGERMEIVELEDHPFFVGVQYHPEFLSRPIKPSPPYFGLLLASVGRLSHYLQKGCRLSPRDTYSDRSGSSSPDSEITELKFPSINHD
Kind of experiment: Human CTPS1 enzyme inhibition, ADP-Glo Max assay. The format is biochemical. As to conditions: ADP-Glo Max assay; Table 10; read-out: Human CTPS1 Enzyme Inhibition, IC50 grouped by potency range (CTPS1). The essentials: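 Enzyme preincubated with compound for 10 min at 25 °C in 50 mM Tris pH 8.0, 10 mM MgCl2, 0.01% Tween-20, 2 mM L-cysteine. ATP-to-ADP conversion detected by ADP-Glo Max luminescence after 60 min depletion and 60 min development steps. Percentage inhibition calculated per concentration.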
Consider `CC(C)(C(=O)Nc1ccc(-c2cncc(C#N)c2)cc1F)c1csc(NS(=O)(=O)C2CC2)n1` [T129, N-(4-(5-cyanopyridin-3-yl)-2-fluorophenyl)-2-(2-(cyclopropanesulfonamido)thiazol-4-yl)-2-methylpropanamide], for which the IC50 was under 100 nM.

Consider `CC(C)(C(=O)Nc1ccc(-c2cncc(Cl)c2)c(C(F)(F)F)c1)c1csc(NS(=O)(=O)C2CC2)n1` [T370, N-(4-(5-chloropyridin-3-yl)-3-(trifluoromethyl)phenyl)-2-(2-(cyclopropanesulfonamido)thiazol-4-yl)-2-methylpropanamide], for which the IC50 lay within 1000 to 10000 nM.

With `CCOc1cncc(-c2ccc(NC(=O)Cc3csc(NS(=O)(=O)C4CC4)n3)c(F)c2)n1` [T423, 2-(2-(cyclopropanesulfonamido)thiazol-4-yl)-N-(4-(6-ethoxypyrazin-2-yl)-2-fluorophenyl)acetamide], the IC50 is under 100 nM.

For `COc1cncc(-c2ccc(NC(=O)Cc3csc(NS(=O)(=O)C4CCC4)n3)cc2)n1` [T61, 2-(2-(cyclobutanesulfonamido)thiazol-4-yl)-N-(4-(6-methoxypyrazin-2-yl)phenyl)acetamide], the concentration for half-maximal inhibition (IC50) is under 100 nM.

With `Cc1ccc(-c2ccc(NC(=O)C(C)(C)c3csc(NS(=O)(=O)C4CC4)n3)cc2)cn1` [T105, 2-(2-(cyclopropanesulfonamido)thiazol-4-yl)-2-methyl-N-(4-(6-methylpyridin-3-yl)phenyl)propanamide], the 50% inhibitory concentration (IC50) was in the range of 1000 to 10000 nM.

As to `Cc1cncc(-c2ccc(NC(=O)Cc3csc(NS(=O)(=O)C4CC4)n3)cc2)c1` [T99, 2-(2-(cyclopropanesulfonamido)thiazol-4-yl)-N-(4-(5-methylpyridin-3-yl)phenyl)acetamide], the IC50 was under 100 nM.

For `O=C(Cc1csc(NS(=O)(=O)C2CC2)n1)Nc1ccc(-c2cncnc2)cn1` [T64, 2-(2-(cyclopropanesulfonamido)thiazol-4-yl)-N-(5-(pyrimidin-5-yl)pyridin-2-yl)acetamide], the IC50 lay in the range of 100 to 1000 nM.

Consider `CC(C)(C(=O)Nc1ccc(-c2cccnn2)cc1)c1csc(NS(=O)(=O)C2CC2)n1` [T68, 2-(2-(cyclopropanesulfonamido)thiazol-4-yl)-2-methyl-N-(4-(pyridazin-3-yl)phenyl)propanamide], for which the IC50 fell in the range of 100 to 1000 nM.

Take `O=C(Cc1csc(NS(=O)(=O)C2CC2)n1)Nc1ccc(-c2ccc(F)cc2)cc1` [T25, 2-(2-(cyclopropanesulfonamido)thiazol-4-yl)-N-(4′-fluoro-[1,1′-biphenyl]-4-yl)acetamide]: the IC50 is 1000 to 10000 nM.

Turning to `CC(C)(C(=O)Nc1ccc(-c2cncc(OC(F)F)c2)cn1)c1csc(NS(=O)(=O)C2CC2)n1` [T115, 2-(2-(cyclopropanesulfonamido)thiazol-4-yl)-N-(5′-(difluoromethoxy)-[3,3′-bipyridin]-6-yl)-2-methylpropanamide], the half-maximal inhibitory concentration (IC50) is under 100 nM.

Consider `CC(C)(O)c1cccc(-c2ccc(NC(=O)C(C)(C)c3csc(NS(=O)(=O)C4CC4)n3)nc2)c1` [T237, 2-(2-(cyclopropanesulfonamido)thiazol-4-yl)-N-(5-(3-(2-hydroxypropan-2-yl)phenyl)pyridin-2-yl)-2-methylpropanamide], for which the concentration for half-maximal inhibition (IC50) fell in the range of 1000 to 10000 nM.

For the compound `Cc1cc(-c2cncc(C#N)c2)ccc1NC(=O)C(C)(C)c1csc(NS(=O)(=O)C2CC2)n1` [T286, N-(4-(5-cyanopyridin-3-yl)-2-methylphenyl)-2-(2-(cyclopropanesulfonamido)thiazol-4-yl)-2-methylpropanamide], the IC50 was under 100 nM.

On to `CC(C)(C(=O)Nc1ccc(-c2cncc(OC(F)F)c2)cc1)c1csc(NS(=O)(=O)C2CC2)n1` [T118, 2-(2-(cyclopropanesulfonamido)thiazol-4-yl)-N-(4-(5-(difluoromethoxy)pyridin-3-yl)phenyl)-2-methylpropanamide], for which the IC50 was under 100 nM.

In the case of `CC(C)(C(=O)Nc1ccc(-c2cncc(C(F)(F)F)n2)cc1)c1csc(NS(=O)(=O)C2(C)CC2)n1` [T302, 2-methyl-2-(2-((1-methylcyclopropane)-1-sulfonamido)thiazol-4-yl)-N-(4-(6-(trifluoromethyl)pyrazin-2-yl)phenyl)propanamide], the IC50 lay within 100 to 1000 nM.

In the case of `COc1ccc(-c2ccc(NC(=O)Cc3csc(NS(=O)(=O)C4CC4)n3)cc2)cn1` [T260, 2-(2-(cyclopropanesulfonamido)thiazol-4-yl)-N-(4-(6-methoxypyridin-3-yl)phenyl)acetamide], the IC50 fell in the range of 1000 to 10000 nM.

As for `CCOc1cncc(-c2ccc(NC(=O)C(C)(C)c3csc(NS(=O)(=O)C4CC4)n3)c(F)c2)n1` [T134, 2-(2-(cyclopropanesulfonamido)thiazol-4-yl)-N-(4-(6-ethoxypyrazin-2-yl)-2-fluorophenyl)-2-methylpropanamide], the half-maximal inhibitory concentration (IC50) was under 100 nM.

As for `Cc1ncc(Cl)nc1-c1ccc(NC(=O)C(C)(C)c2csc(NS(=O)(=O)C3CC3)n2)cc1` [T276, N-(4-(6-chloro-3-methylpyrazin-2-yl)phenyl)-2-(2-(cyclopropanesulfonamido)thiazol-4-yl)-2-methylpropanamide], the IC50 was 100 to 1000 nM.

Turning to `CC(C)(C(=O)Nc1ccc(-c2cccc(C(F)(F)F)n2)cc1)c1csc(NS(=O)(=O)C2CC2)n1` [T270, 2-(2-(cyclopropanesulfonamido)thiazol-4-yl)-2-methyl-N-(4-(6-(trifluoromethyl)pyridin-2-yl)phenyl)propanamide], the IC50 lay within 100 to 1000 nM.

As for `C#Cc1cncc(-c2ccc(NC(=O)C(C)(C)c3csc(NS(=O)(=O)C4CC4)n3)cc2)n1` [T136, 2-(2-(cyclopropanesulfonamido)thiazol-4-yl)-N-(4-(6-ethynylpyrazin-2-yl)phenyl)-2-methylpropanamide], the IC50 is under 100 nM.

As to `O=C(Nc1ccc(-c2cccnc2)cc1)C(=O)c1csc(NS(=O)(=O)C2CC2)n1` [T104, 2-(2-(cyclopropanesulfonamido)thiazol-4-yl)-2-oxo-N-(4-(pyridin-3-yl)phenyl)acetamide], the 50% inhibitory concentration (IC50) fell in the range of 100 to 1000 nM.

`CCOc1cncc(-c2ccc(NC(=O)C(C)(C)c3csc(NS(=O)(=O)C4CC4)n3)cc2)c1` [T290, 2-(2-(cyclopropanesulfonamido)thiazol-4-yl)-N-(4-(5-ethoxypyridin-3-yl)phenyl)-2-methylpropanamide]: the 50% inhibitory concentration (IC50) was under 100 nM.

For the compound `Cc1cc(-c2cncc(C#N)n2)ccc1NC(=O)C(C)(C)c1csc(NS(=O)(=O)C2CC2)n1` [T465, N-(4-(6-cyanopyrazin-2-yl)-2-methylphenyl)-2-(2-(cyclopropanesulfonamido)thiazol-4-yl)-2-methylpropanamide], the IC50 lay within 1000 to 10000 nM.

As for `CCCOc1cncc(-c2ccc(NC(=O)C(C)(C)c3csc(NS(=O)(=O)C4CC4)n3)cc2)c1` [T157, 2-(2-(cyclopropanesulfonamido)thiazol-4-yl)-2-methyl-N-(4-(5-propoxypyridin-3-yl)phenyl)propanamide], the concentration for half-maximal inhibition (IC50) is under 100 nM.

Take `O=C(Cc1csc(NS(=O)(=O)C2CC2)n1)Nc1ccc(-c2ccccc2)nc1` [T66, 2-(2-(cyclopropanesulfonamido)thiazol-4-yl)-N-(6-phenylpyridin-3-yl)acetamide]: the 50% inhibitory concentration (IC50) fell in the range of 100 to 1000 nM.

`CC(C)(C(=O)Nc1ccc(-c2ccnnc2)cc1)c1csc(NS(=O)(=O)C2CC2)n1` [T31, 2-(2-(cyclopropanesulfonamido)thiazol-4-yl)-2-methyl-N-(4-(pyridazin-4-yl)phenyl)propanamide]: the 50% inhibitory concentration (IC50) was 1000 to 10000 nM.

`CCC(CC)(C(=O)Nc1ccc(-c2cccnc2)cc1)c1csc(NS(=O)(=O)C2CC2)n1` [T92, 2-(2-(cyclopropanesulfonamido)thiazol-4-yl)-2-ethyl-N-(4-(pyridin-3-yl)phenyl)butanamide]: the IC50 is under 100 nM.

Take `CCOc1cncc(-c2ccc(NC(=O)C(C)(C)c3csc(NS(=O)(=O)C4CC4)n3)c(C)c2)n1` [T137, 2-(2-(cyclopropanesulfonamido)thiazol-4-yl)-N-(4-(6-ethoxypyrazin-2-yl)-2-methylphenyl)-2-methylpropanamide]: the half-maximal inhibitory concentration (IC50) was under 100 nM.

Take `CCCOc1cncc(-c2ccc(NC(=O)C(C)(C)c3csc(NS(=O)(=O)C4CC4)n3)nc2)c1` [T146, 2-(2-(cyclopropanesulfonamido)thiazol-4-yl)-2-methyl-N-(5′-propoxy-[3,3′-bipyridin]-6-yl)propanamide]: the IC50 was in the range of 100 to 1000 nM.

On to `CC(C)(C(=O)Nc1ccc(-c2cccc(N3CCOCC3)c2)cn1)c1csc(NS(=O)(=O)C2CC2)n1` [T238, 2-(2-(cyclopropanesulfonamido)thiazol-4-yl)-2-methyl-N-(5-(3-morpholinophenyl)pyridin-2-yl)propanamide], for which the IC50 was 1000 to 10000 nM.

As to `CC(C)Oc1cncc(-c2ccc(NC(=O)C(C)(C)c3csc(NS(=O)(=O)C4CC4)n3)cc2)n1` [T272, 2-(2-(cyclopropanesulfonamido)thiazol-4-yl)-N-(4-(6-isopropoxypyrazin-2-yl)phenyl)-2-methylpropanamide], the IC50 is under 100 nM.

As for `O=C(Nc1ccc(-c2ccccc2)cc1)C(F)(F)c1csc(NS(=O)(=O)C2CC2)n1` [T60, N-([1,1′-biphenyl]-4-yl)-2-(2-(cyclopropanesulfonamido)thiazol-4-yl)-2,2-difluoroacetamide], the half-inhibitory concentration (IC50) fell in the range of 100 to 1000 nM.
